# Results from patent US11034839B2, “Compounds, linked with haptens, for the detection of senescent cells” (THE UNIVERSITY OF MANCHESTER, priority 2016, dated 2021).
# Assays:
# [1] = tested on: lipofuscin rich senescent cells, induced Saos2-p21WAF1/Cip1 Tet-ON cells; assay: Immunohistochemistry staining in induced Saos2-p21WAF1/Cip1 Tet-ON cellular system; type: cell-based, human; details: FIG. 13
# Procedure: • 1. Compound (LG13) • 2. 100% ethanol (100% EtOH) • 3. Parafilm • 4. Fritted glass filter of medium porosity • 5. Airtight Dye Container 2.2.2 General Procedure: • 1. Dissolve 40 mg of the compound (LG13) in 7.4 ml 100% EtOH in a glass beaker and cover it with parafilm. • 2. Incubate at 56° C. in a waterbath for 120 min until the compound is completely dissolved. 2.3. General Method for Compound (LG13) Staining 2.3.1 Materials: • 1. Xylene • 2. […] Syringe • 4. 13 mm filter, membrane 0.22 μm • 5. Soft paper (dry or dipped in ethanol) • 6. Anti-biotin antibody ([Hyb-8] ab201341, Abcam) • 7. Ultravision Quanto Detection System HRP DAB kit (Cat no: TL-125-QHD) • 8. Glycerol (Sigma-Aldrich) • 9. Tris Buffered Saline (TBS; 10×): 1.5 M NaCl, 0.1 M Tris-HCl, pH 7.4. Store at 4° C. • 10. 0.5% Triton X/TBS: 0.5 ml Triton X diluted in 99.5 ml TBS • 11. Mounting media Glycergel (DakoCytomation). • 12. Light Microscope • 13. Anti-p21^WAF1/Cip1 mouse primary antibody [(F-5)(sc-6246) Santa-Cruz] • 14. Anti-p16^INK4A mouse primary antibody [(sc-74401) Santa-Cruz] • 15. Anti-Ki67 rabbit polyclonal antibody [ab16667, Abcam] • 16. Secondary goat anti-mouse antibody Alexa Fluor 568 conjugated [Thermo Fisher Scientific (Cat no: A-11004)] • 17. DAPI (4′,6-Diamidino-2-Phenylindole, Dihydrochloride) [Thermo Fisher Scientific (Cat no: D1306)] • 18. Fluorescence microscope 2.3.2 General Procedures: 2.3.2.1 General Staining Protocol for Cells Mounted on Coverslips • 1. Wash ×1 in TBS for 5 min at RT. • 2. Block the endogenous hydrogen peroxidase, using the UltraVision Hydrogen Peroxide Block included in the Ultravision Quanto Detection System HRP DAB kit (Cat no: TL-125-QHD) for 10 min at RT and in dark conditions. • 3. Wash ×2 in TBS for 30 sec and ×1 for 5 min at RT. • 4. Wash ×1 in EtOH 50% for 5 min at RT. • 5. Wash ×1 EtOH 70% for 5 min at RT. • 6. […] The staining reaction is monitored under the light microscope until detection of the signal (average time 5-8 min). • 8. […] The staining reaction is monitored under the light microscope until detection of the dark brown signal (average time 30 sec-1 min) at RT 1. • 20. […]
# Ethanol solubility = type: physicochemical
# lipofuscin = details: Georgakopoulou et al., 2013; cited from earlier work
# [2] = tested on: senescent cells in irradiated human laryngeal tumors and mouse lung adenomas; assay: Histochemical staining of paraffin embedded, formalin fixed tissue sections (same method as for SBB); details: FFPE sections of irradiated human laryngeal tumors and mouse lung adenomas; dye in 70% ethanol, 10 min
# Text: In the following comparative example 1 the histochemical dye SBB was used to detect senescent cells in tissue sections by the histochemical method previously described [Georgakopoulou et al, Aging (Albany N.Y.) 2013].
# Tissue sections were obtained from paraffin embedded, formalin fixed: (a) irradiated human laryngeal tumors and (b) mouse lung adenomas, with established presence of senescent cells. Subsequently, they were immobilized on glass microscopy slides by standard procedures and processed as follows: • a. Deparaffinization for 5 min at room temperature in xylene. • b. Gradual rehydration in solutions of descending concentration of ethanol (100%, 80%, 70%, 50% v/v) and finally in TBS (Tris-buffered saline) or PBS (Phosphate-buffered saline) solution. • c. The SBB dye was diluted in 70% ethanol (v/v), filtered and then applied on tissue sections for 10 min. • d. Quick wash in 50% (v/v) ethanol. • e. Transfer and wash in TBS or PBS solution. • f. Counterstain with Hematoxylin or Nuclear Fast Red, followed by mounting with glycerol and sealed with a cover slip. • g. Microscopy observation. […]
# [3] = tested on: HeLa cancer cells and near normal Li-Fraumeni fibroblasts; assay: False-positive studies (cell confluency, serum starvation); type: cell-based, human; details: compared with SA-b-gal, FIGS. 17 and 18
# Text: The in vitro models comprised seven cellular systems. […] The same cellular system was used at early passages that underwent SIPS upon y-irradiation and was compared in relation to non-irradiated counterparts. Another set of models comprised two inducible Saos2 Tet-ON osteosarcoma cell lines carrying p53 and p21^WAF1/Cip1, respectively, two well established effectors of senescence (Georgakopoulou et al., 2013; Galanos et al., 2016). Finally, the U2OS-E2F1 ER, U205-Cdt1 Tet-ON and HBECs-Cdc6 Tet-ON inducible systems that undergo SIPS due to oncogenic stress signals were also utilized (Petrakis et al., 2016; Liontos et al., 2007; Liontos et al., 2009). Parental cell lines were obtained either directly from ATCC or from collaborating laboratories that generated them. In addition, the human cancer cell line HeLa and near normal Li-Fraumeni fibroblasts (Galanos et al., 2016) were also employed as control cell lines for the specificity of staining of the SBB compounds.
# [4] = tested on: senescent cells in biological systems with established senescence; assay: Quantitative analysis and concordance of SA-b-gal, SBB and GL13 staining; details: FIG. 15
# [5] = tested on: senescent cells (lipofuscin); details: Georgakopoulou et al, 2013; cited from earlier work
structure (smiles),measurement,setting,value
"CC1(C)Nc2cccc3c(/N=N/c4ccc(/N=N/c5ccc(CCOC(=O)CCCC[C@H]6SC[C@H]7NC(=O)N[C@H]76)cc5)c5ccccc45)ccc(c23)N1 [LG52, 4-((E)-(4-((E)-(2,2-Dimethyl-2,3-dihydro-1H-perimidin-6-yl)diazenyl)naphthalen-1-yl)diazenyl)phenethyl 5-((3aR,4R,6aS)-2-oxohexahydro-1H-thieno[3,4-d]imidazol-4-yl)pentanoate]",detection of lipofuscin rich senescent cells by immunohistochemistry staining,[1],detect robustly lipofuscin rich senescent cells
"CC1(C)Nc2cccc3c(/N=N/c4ccc(/N=N/c5ccccc5)c5ccccc45)ccc(c23)N1 [SBB, Sudan Black B]",ethanol solubility,Ethanol solubility,ethanol solubility problems
same,effect of staining on lipofuscin autofluorescence,lipofuscin,quenched
same,histochemical staining of senescent cells,[2],senescent cells are clearly stained
same,false-positive staining due to serum starvation and cell confluency,[3],deprived of the false-positive staining disadvantages
same,"specificity compared among SA-b-gal, SBB and GL13 staining",[4],concordance of specificity
same,selectivity of lipofuscin stain for senescent cells,[5],highly selective for the detection of senescent cells
"CC1(CCOC(=O)CCCC[C@H]2SC[C@H]3NC(=O)N[C@H]32)Nc2cccc3c(/N=N/c4ccc(/N=N/c5ccccc5)c5ccccc45)ccc(c23)N1 (stereo partly drawn) [LG39, 2-(2-Methyl-6-((E)-(4-((E)-phenyldiazenyl)naphthalen-1-yl)diazenyl)-2,3-dihydro-1H-perimidin-2-yl)ethyl 5-((3aR,4R,6aS)-2-oxohexahydro-1H-thieno[3,4-d]imidazol-4-yl)pentanoate]",detection of lipofuscin rich senescent cells by immunohistochemistry staining,[1],detect robustly lipofuscin rich senescent cells
"CC1(CCCOC(=O)CCCC[C@H]2SC[C@H]3NC(=O)N[C@H]32)Nc2cccc3c(/N=N/c4ccc(/N=N/c5ccccc5)c5ccccc45)ccc(c23)N1 (stereo partly drawn) [LG56, 3-(2-Methyl-6-((E)-(4-((E)-phenyldiazenyl)naphthalen-1-yl)diazenyl)-2,3-dihydro-1H-perimidin-2-yl)propyl 5-((3aR,4R,6aS)-2-oxohexahydro-1H-thieno[3,4-d]imidazol-4-yl)pentanoate]",detection of lipofuscin rich senescent cells by immunohistochemistry staining,[1],detect robustly lipofuscin rich senescent cells
